This passage reports melting point results from a melting point compilation (Tetko et al.; mined from patent text by program, amines drawn as free bases though some values may be those of a salt).

`O=C(O)C1CCC(=O)N1c1cccc(O)c1` (centres undefined) had a melting point of 183 to 185 °C. As to `CCCCNS(=O)(=O)CC(O)C(O)C(CC1CCCCC1)NC(=O)c1ccncc1` (centres undefined), the melting point was 168 to 186 °C.

Compound `CC(C)c1ccc(N(Cc2ccc(O)cc2)C(=O)C2CCCc3c(O)cccc32)cc1` (centres undefined) showed a melting point of 241 to 243 °C. The compound `CN(CC(O)c1cccc(OCc2ccccc2)c1)C(=O)c1cnc(N(C)C)nc1-c1ccc(Cl)c(Cl)c1` (centres undefined) gave a melting point of 68 to 70 °C. The compound `CCOC(=O)N1CCC(=C2c3sccc3C=Cn3ccnc32)CC1` returned a melting point of 176 °C. Then `COc1ccc(OCc2cccc(OCc3ccc4ccccc4n3)c2)c(C(=O)O)c1`, with 248 to 249 °C. Under `CCOC(=O)COc1cc(F)c(C)cc1C(=S)NCc1ccc(Br)cc1F` stands 98 to 100 °C; under `NC(C(=O)O)C1CC(C(=O)O)C1C(=O)O` (centres undefined), 205 to 209 °C; under `CN(C)CC(=O)Nc1ccccc1[N+](=O)[O-]`, 44 to 47 °C.

The compound `O=C1CCc2cc(NCC(=O)N3CCC(Oc4ccc(Cl)cc4)CC3)ccc2N1` returned a melting point of 248 to 251 °C. Take `COc1nc(OC)nc(N(C)C(=O)NS(=O)(=O)c2ccccc2C(F)F)n1`: the melting point was 164 to 170 °C. Under `CC(/C=C/c1c(C)sc(C)c1C)=C(F)\C=C\C(C)=C\C(=O)O` stands 217 to 223 °C. The compound `C(=Cc1ccc(-c2ccc(C=Cc3ccccc3)cc2)cc1)c1ccccc1` came in with a melting point of 323 to 325 °C. The compound `CCCCc1c(C(=O)c2cccnc2)c2ccccc2n1C` had a melting point of 89 to 90 °C. As for `CC(C)c1cccc(C(C)C)c1NC(=O)CN1CCN(CCCSc2nc3ccccc3o2)CC1`, the melting point is 123 to 125 °C. In the case of `O=C(CN1c2nc(-c3ccncn3)cc(=O)n2CCC12CCN(C(=O)c1cccc(F)c1)C2)c1ccccc1` (centres undefined), the melting point lay within 267 to 268 °C. For the compound `O=C(O)c1cn2c3c(cc(Cl)cc3c1=O)CCC2`, the melting point fell in the range of 282 to 286 °C. For `Nc1ccc(Cl)cc1C1=CCN(C/C=C/c2ccc(Cl)cc2)CC1`, the melting point was in the range of 168 to 170 °C. `CS(=O)(=O)c1ccc(-c2sc(-c3cccs3)nc2-c2ccc(F)cc2)cc1` came in with a melting point of 194 to 195 °C.

Compound `CC(=O)Nc1ccc(-c2cc(-c3nc4ccccc4c(=O)n3-c3cccc(C)c3)sc2N2CCOCC2)cc1` had a melting point above 275 °C. With `CC(=O)Nc1cc(C(=O)OCCN2CCCCC2)c2oc(-c3ccccc3)cc2c1`, the melting point fell in the range of 172 to 174 °C. As for `Cc1ccc(C(=O)O)cc1NC(=O)C(CS)Cc1ccccc1` (centres undefined), the melting point lay within 192 to 194 °C. Under `Cc1cc(C(=O)O)c(S(N)(=O)=O)o1` stands 191 °C; under `CCCCNc1c(C(=O)OCC)c(C)nc(S)c1[N+](=O)[O-]`, 140 to 142 °C. Consider `CCOP(=O)(/C=C/c1cn(-c2ccccc2)nc1OCc1ccc(OCc2nc(-c3ccc(C(=O)OC)cc3)oc2C)c(OC)c1)OCC`, for which the melting point is 129 to 130 °C. As for `Cc1cc(SC(C)C)c(NC(=O)CCCCCCSc2nc3c(C)c(Cl)cc(C(C)C)c3o2)c(SC(C)C)n1`, the melting point is 91 to 93 °C. The compound `CC(C(=O)NCC(COC(=O)C(C)(C)C)Cc1ccc(C(C)(C)C)cc1)c1ccc(NS(C)(=O)=O)c(F)c1` (centres undefined) displayed a melting point of 44 to 46 °C. `CCc1cn([C@@H]2CO[C@H](CO)O2)c(=O)[nH]c1=O`: the melting point was 132 to 133 °C. On to `O=C(Cl)c1cc(Cl)cc2c1OCCO2`, for which the melting point amounted to 140 °C. Under `CC(=O)Nc1c(C)c(C)c2c(c1N(C)C)CC(C)(C)O2` stands 186 °C; under `CCOC(=O)[C@H]1CCCN2CCc3c([nH]c4ccc(Cl)cc34)[C@@H]12` (racemic), 88 to 90 °C; under `OCCCON=Cc1cn(Cc2ccccc2)c2ccccc12`, 76.4 to 77.7 °C.

`CC(=O)NC1=NN(c2cccc(C)c2)CC1` registered a melting point of 222 to 225 °C.

Regarding `CCOc1nc(NCCCCC2CC(C)(C)NC(C)(C)C2)nc(NCCCCC2CC(C)(C)NC(C)(C)C2)n1`, the melting point lay within 95 to 104 °C. `CC(=O)C=Cc1c(Cl)nc(C)c2c1CCCC2`: the melting point is 90 °C.

`N#CCCCCCCn1c(-c2ccccc2)nc(-c2ccccc2)c1-c1ccccc1`: the melting point is 104 to 106 °C. In turn, `CCOC(=O)c1c(N)nc(-c2ccc([N+](=O)[O-])cc2)c([N+](=O)[O-])c1C(=O)OCC` had a melting point of 148 to 150 °C.

The compound `C#CC(C)N1CCNC1=O` (centres undefined) displayed a melting point of 90 to 92 °C. Compound `Cc1nc2cccnc2n(-c2ccc(Cl)cc2)c1=O` yielded a melting point of 245 to 246 °C.

Take `Cc1nc2ccccc2n1C`: the melting point stood at 102 °C.

With `Cc1ccc(NC(=O)N2CCN(C(=O)c3ccc(Nc4ccnc5cc(C(F)(F)F)ccc45)cc3)CC2)cc1`, the melting point is 280 to 282 °C. In turn, `COC(=O)C1C2C=CC(C2)C1N(C)S(=O)(=O)c1ccc(OCc2ccccc2)cc1` (centres undefined) gave a melting point of 103 to 104 °C. For the compound `COc1cc(Nc2c(C#N)cnc3cc(C#Cc4ccccn4)ccc23)c(Cl)cc1Cl`, the melting point is 238 to 240 °C. In turn, `COC(=O)C=C(C)c1ccc(CC(C)(C)NCC(O)c2ccccc2)cc1` (centres undefined) came in with a melting point of 98 to 103 °C. The compound `O=C(O)c1nc(I)c2cc(Cc3ccc(F)cc3)cnc2c1OCc1ccccc1` returned a melting point of 132 to 134 °C. On to `COc1ccc(-n2ncc(-c3ccc(S(C)(=O)=O)cc3)c(-c3ccc(F)cc3)c2=O)cc1F`, for which the melting point lay within 97 to 101 °C.

On to `O=C1NC2=C(C=CCC2)S(=O)(=O)c2cc(C(F)(F)F)ccc21`, for which the melting point lay within 240 to 241 °C. The compound `CON1CC(c2ccc(OCc3ccccc3)cc2)CC1=O` (centres undefined) returned a melting point of 92 to 97 °C.

Regarding `CC(C)CC(=O)N1CCC(c2nc3cc(-c4ccc(-n5cnnn5)cc4F)ccc3o2)CC1`, the melting point lay in the range of 168 to 172 °C. `CCN1c2nc(Cl)ccc2NC(=O)c2cc(CCc3ccncc3)cnc21` returned a melting point of 194 to 196 °C. Regarding `O=C(CC(=O)Nc1ccccc1Cl)CS(=O)(=O)C(c1ccc(Cl)cc1)c1ccc(Cl)cc1`, the melting point lay in the range of 92 to 95 °C. Compound `CC(=O)c1cccc(Oc2ncccc2C(=O)NCC2CCC(C(C)O)CC2)c1` (centres undefined) came in with a melting point of 101 to 103 °C.

As for `N=C(N)Nc1ccc(CCCC(=O)NC(COCc2ccccc2)C(=O)NCCCC(CCCNC(=O)OCc2ccccc2)NC(=O)OCc2ccccc2)cc1` (centres undefined), the melting point lay in the range of 157 to 160 °C.

On to `CC(C)Oc1ccc(CCCOc2cc(CCC(=O)O)n(C(C)C)n2)c(Oc2ncc(C(F)(F)F)cc2Cl)c1`, for which the melting point was 128 °C.

Turning to `Clc1ccccc1-c1noc(-c2ccccc2Cl)n1`, the melting point was 91 to 92 °C. As for `O=C(NNS(=O)(=O)c1ccc([N+](=O)[O-])cc1)c1ccccc1`, the melting point was 193 to 195 °C. `CCn1nc(OCC(=O)c2cccs2)c(-c2ccc(F)cc2)c1-c1ccc(S(C)(=O)=O)cc1` showed a melting point of 163 to 164 °C. Under `CCCCCCCCCCCCCCCCCCNC(=O)OCC(CO)OC(=O)NC` (centres undefined) stands 92 to 93 °C. Then `COc1cccc(-c2ncc3n2C=CN(C)C3)c1`, with 211 to 214 °C. Take `CCNS(=O)(=O)c1cccc(NC(=O)c2cnn3c(C(F)(F)F)cc(-c4ccc(C(F)(F)F)c(OCC)c4)nc23)c1`: the melting point came out at 226 °C. Then `N#CC(c1ccccc1)(c1ccccc1)C1CN(C2CCCCC2)C1`, with 111 to 114 °C; and `COc1ccc(CCNC(=O)C=Cc2ccc(C)cc2C)cc1S(N)(=O)=O`, with 202 °C. Under `CC(CS)C(=O)NC(CC(=O)O)C(=O)O` (centres undefined) stands 129 to 131 °C; under `CC(=O)Oc1c(C)cc(NC(=O)Nc2c(-c3ccccc3C)c3cc(Cl)c(C)cc3oc2=O)cc1C`, 240 to 242 °C; under `CC(=O)NCCCn1nnnc1S`, 152 to 154 °C. `CCOC(=O)c1cccc2[nH]c3c(C)ccc(C)c3c12`: the melting point amounted to 149 °C. `Cc1cc(CO)c(C(=O)O)c(S)n1`: the melting point is above 270 °C.

For `CCOC(=O)C(=NOC1CCCCC1)c1csc(N)n1`, the melting point fell in the range of 125 to 126 °C. As for `O=C(Nc1cc(Br)cc(C(F)(F)F)c1)Oc1ccc([N+](=O)[O-])cc1`, the melting point lay in the range of 140 to 142 °C. In turn, `CCSc1nsc(NC(=O)NC)c1C#N` came in with a melting point of 246 °C. In turn, `CN(CCCNC(=O)c1c2ccccc2nc2ccccc12)CCCNC(=O)c1c2ccccc2nc2c1[nH]c1ccccc12` registered a melting point of 108 to 110 °C. Compound `CCCCCCCCCCCCCCCCCCOc1cc(OCCCOc2ccc(S(C)(=O)=O)cc2)cc(N(CC(=O)O)CC(=O)O)c1` gave a melting point of 118 to 120 °C.

As for `CCN(CC)C(=O)C1CN2CCC1C(NCc1ccccc1OC)C2C(c1ccccc1)c1ccccc1` (centres undefined), the melting point was in the range of 121 to 123 °C. Under `COC(=O)C[C@@H](CI)O[Si](c1ccccc1)(c1ccccc1)C(C)(C)C` stands 84 to 88 °C; under `CC(C)(C)CC(=O)N1CCN(c2ccc3ncc(Br)n3n2)CC1`, 170 to 171 °C. Take `CCCCCCc1cc(-c2ccccc2)c(OCC(=O)O)c(-c2ccccc2)c1`: the melting point fell in the range of 87 to 89 °C. Take `COC1(c2csc(Sc3ccc(/C(C)=N/O)cc3)n2)CCOCC1`: the melting point was determined as 146 °C. On to `C=CC(=O)Oc1ccc(NS(C)(=O)=O)cc1`, for which the melting point was 136 to 140 °C.

The compound `CC(C)(C)OC(=O)C(Cc1ccc(Cl)cc1)N=C(c1ccccc1)c1ccccc1` (centres undefined) showed a melting point of 102 to 103 °C.

On to `CCCCNC(=O)Nc1ccc(OC(=O)NCCCC)cc1C(=O)NCC1CCN(C(c2ccccc2)c2ccccc2)CC1`, for which the melting point lay within 197 to 199 °C. `Cc1cc2c(cc1Br)C(O)(c1ccccn1)CC(C)(C)CO2` (centres undefined): the melting point came out at 147 °C. As for `N#Cc1ccccc1N1CCC2(CC1)OCCO2`, the melting point lay within 134 to 135 °C. Then `CCc1cc(C(=O)c2ccccc2Cl)c(-n2c(CNC(=O)c3cc4ccccc4[nH]3)nnc2-c2ccccc2)s1`, with 230 to 232 °C. Consider `CC(C)CC(=O)Nc1c(C(=O)c2ccoc2)[nH]c2cc(Cl)ccc12`, for which the melting point fell in the range of 202 to 203 °C.

As usually defined, the melting point is the temperature, or range, at which the solid turns liquid.
